Test results from US11339169B2, “P2X3 and/or P2X2/3 compounds and methods” (Asana BioSciences, LLC, priority 2016, dated 2022).
pIC50: −log10 of the molar value. Where “and” joins values, the source holds several entries; their conditions need not be identical. Equal values may be shown once.

Assays:
hP2X3 = target: T1, hP2X3 (Homo sapiens, UniProt P56373); experiment: FLIPR intracellular calcium assay, hP2X3; assay type: cell-based; conditions: human P2X3-HEK cells, agonist at EC75
T1 construct: host or cells: HEK (hP2X3-HEK)
T1 sequence (P56373 1-397): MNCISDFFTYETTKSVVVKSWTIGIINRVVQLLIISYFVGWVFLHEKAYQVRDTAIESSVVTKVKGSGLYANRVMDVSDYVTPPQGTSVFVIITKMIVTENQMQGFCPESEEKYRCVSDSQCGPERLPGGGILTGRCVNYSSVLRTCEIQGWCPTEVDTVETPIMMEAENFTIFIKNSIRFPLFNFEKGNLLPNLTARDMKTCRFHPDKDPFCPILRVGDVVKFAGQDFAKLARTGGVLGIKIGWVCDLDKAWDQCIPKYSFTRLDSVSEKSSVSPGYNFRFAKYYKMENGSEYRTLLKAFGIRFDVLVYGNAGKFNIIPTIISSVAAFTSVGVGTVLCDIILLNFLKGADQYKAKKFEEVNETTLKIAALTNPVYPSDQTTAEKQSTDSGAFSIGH
How it was run: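 HEK (hP2X3) or tetracycline-inducible TRex293 (hP2X2/3) cells loaded with Calcium 4 dye, then given 11-point half-log compound dilutions for 15 min at room temperature in HBSS/HEPES, pH 7.4, with 1.8 mM CaCl2. Cells challenged with agonist at EC75; IC50 derived from fluorescence inhibition versus no-compound wells.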

hP2X2/3 = target: T2, hP2X2/3 (Homo sapiens, UniProt P56373+Q9UBL9); experiment: FLIPR intracellular calcium assay, hP2X2/3; assay type: cell-based; conditions: human P2X2/3-TRex293 cells, agonist at EC75
T2 construct: host or cells: TRex293 (hP2X2/3-TRex293), doxycycline-induced
T2 sequence (P56373 1-397): T1 sequence (P56373 1-397)
T2 sequence (Q9UBL9 1-471): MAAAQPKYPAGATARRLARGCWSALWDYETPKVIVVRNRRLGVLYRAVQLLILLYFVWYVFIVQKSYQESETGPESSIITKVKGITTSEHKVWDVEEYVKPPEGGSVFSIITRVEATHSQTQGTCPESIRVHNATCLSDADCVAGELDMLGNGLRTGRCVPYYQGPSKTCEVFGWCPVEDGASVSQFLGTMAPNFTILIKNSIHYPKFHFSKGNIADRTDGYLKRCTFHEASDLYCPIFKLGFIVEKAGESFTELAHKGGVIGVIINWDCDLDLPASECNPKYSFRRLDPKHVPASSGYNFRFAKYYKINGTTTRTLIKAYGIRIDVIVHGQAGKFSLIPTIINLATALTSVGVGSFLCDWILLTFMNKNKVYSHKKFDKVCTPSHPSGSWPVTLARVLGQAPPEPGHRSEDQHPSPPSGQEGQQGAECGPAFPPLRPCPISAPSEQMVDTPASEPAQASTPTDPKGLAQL
Text: The FLIPR® assay utilizes cells which express human or rat P2X3 or P2X2/3 receptors. Recombinant cells expressing hP2X3 (Cat #6188) and hP2X2/3 (Cat #6179) were procured from Chantest Corp. Rat P2X2 (NCBI Accession No: U14414) was amplified by PCR from PC12 cDNA (a rat adrenal medulla cell line). The PCR product obtained containing the protein coding sequence of rat P2X2 was cloned into EcoRV-digested and dephosphorylated vector plRES-puro3 within the multiple cloning site (MCS). See, FIG. 1A.
(i) Intracellular Calcium Assay Protocol for Screening Compounds
Cryo-vial containing 6×10^6 cells (human P2X3-HEK/human P2X2/3-TRex293/rat P2X2/3-TRex293/rat P2X3 TRex-CHO) was thawed in a 37° C. water bath. Cells were suspended in 20 mL of respective cell plating media (See annexure for composition) in a 50 mL centrifuge tube. The cell viability was checked with the help of Trypan Blue dye. Upon washing, cells were plated in a black 384-well clear bottomed, sterile poly-D-lysine coated plate such that, each well contained 10,000 cells (15,000/well for hP2X3) in 30 μL cell plating media. The plate was incubated in a 5% CO2 incubator at 37° C. for 24 h.
The next day, prior to the assay, the cell plating media was removed from each well by decanting and gentle tapping. Thirty μL of FLIPR Calcium 4 dye solution was added to each well. The plate was incubated at 37° C. for 45 min (60 min for hP2X3). The plate was next equilibrated at room temperature for 15 minutes before placing it in a 384 well FLIPR for the assay.
Compounds were dissolved in DMSO and serially diluted following 11 point half log (3.16 fold) dilution with a starting concentration of 2 mM. Dilutions were mixed with assay buffer just before performing the assay.
Compounds were added to the respective wells of the assay-ready cell plate with the help of the FLIPR and fluorescence readings were captured for 5 min to observe any possible agonistic property of the compounds. The plate was then incubated at room temperature for 15 min. The cells were stimulated with respective agonist EC75 concentration and the fluorescence readings were captured for another 5 min by FLIPR. The difference in fluorescence readings in presence of the compounds were compared with that of the control wells (wells having no compound) to calculate the inhibitory potency of the compounds. The IC50 values of the compounds were determined using the Graph pad Prism software.
(ii) Cell Plating Media for hP2X3-HEK and hP2X2/3-TRex293 Cells • DMEM/F12 (1:1) HAM media (Invitrogen; Cat #11039) • 1×NEAA (Invitrogen; Cat #11140) • 25 mM HEPES (Invitrogen; Cat #15630) • 1 mM sodium pyruvate (Invitrogen; Cat #11360) • 10% tetracycline negative FBS (PAA; Cat #A15-209) • 1 μg/mL doxycycline (Clontech; Cat #63131) [for hP2X2/3-TRex293 cells only]
(v) Assay Buffer Composition • HBSS (Invitrogen Cat #14025) • 20 mM HEPES (Invitrogen Cat #15630) • 0.01% F127 (Sigma Cat #P2443) • 1.8 mM CaCl2 (Sigma Cat #C5080) • pH adjusted to 7.4
(vi) Dye Solution Composition • 1× FLIPR Calcium 4 dye in assay buffer (Molecular devices Cat #R8141) • 1.8 mM Probenecid (Sigma Cat #P8761) • pH adjusted to 7.4

pIC50 (hP2X3) | pIC50 (hP2X2/3) | SMILES
7.00 to 9.00 | 5.00 to 6.00 | CC(=O)N1CCN(c2nc(N[C@H](C)c3cnc4ccccc4c3)c3c(cnn3C3CCC3)n2)CC1 [Example 48]
7.00 to 9.00 | 5.00 to 6.00 | CCC(C)n1nc(C2CC2)c2nc(N3CCN(C(C)=O)CC3)nc(N[C@H](C)c3cnc4ccccc4c3)c21 (stereo partly drawn) [Example 93, 1-{4-[1-sec-Butyl-3-cyclopropyl-7-((R)-1-quinolin-3-yl-ethylamino)-1H-pyrazolo[4,3-d]pyrimidin-5-yl]-piperazin-1-yl}-ethanone]
7.00 to 9.00 | 5.00 to 6.00 | CCC(C)n1nc(Br)c2nc(N3CCN(C(C)=O)CC3)nc(N[C@H](C)c3cnc4ccccc4c3)c21 (stereo partly drawn) [Example 90, 1-{4-[3-Bromo-1-sec-butyl-7-((R)-1-quinolin-3-yl-ethylamino)-1H-pyrazolo[4,3-d]pyrimidin-5-yl]-piperazin-1-yl}-ethanone]
7.00 to 9.00 | 6.00 to 7.00 | CCC(CC)n1ncc2nc(N3CCN(C(C)=O)CC3)nc(N[C@H](C)c3ccc4ccccc4c3)c21 [Example 40]
7.00 to 9.00 and 6.00 to 7.00 | 5.00 to 6.00 | CCC(C)n1ncc2nc(-n3cncn3)nc(N[C@@H](c3cnc4ccccc4c3)C3CC3)c21 (stereo partly shown) [Example 77]
7.00 to 9.00 | 7.00 to 9.00 | CC[C@@H](C)n1ncc2nc(N3CCN(C(N)=O)CC3)nc(N[C@@H](c3cnc4ccccc4c3)C3CC3)c21 [Example 70]
7.00 to 9.00 | 5.00 to 6.00 | CC[C@H](C)n1ncc2nc(N3CCN(C(C)=O)CC3)nc(NC(COC)c3cnc4ccccc4c3)c21 (stereo partly shown) [Example 82]
7.00 to 9.00 | 5.00 to 6.00 | CC[C@@H](C)n1ncc2nc(N3CCN(C(C)=O)CC3)nc(N[C@H](C)c3cnc4ccccc4c3)c21 [Example 21]
7.00 to 9.00 | 6.00 to 7.00 | CC(C)n1ncc2nc(N3CCN(C(N)=O)CC3)nc(N[C@@H](c3cnc4ccccc4c3)C3CC3)c21 [Example 66]
7.00 to 9.00 | 5.00 to 6.00 | CCC(C)n1ncc2nc(C(=O)NC3CC3)nc(N[C@@H](c3cnc4ccccc4c3)C3CC3)c21 (stereo partly drawn) [Example 124, 1-sec-Butyl-7-[((R)-cyclopropyl-quinolin-3-yl-methyl)-amino]-1H-pyrazolo[4,3-d]pyrimidine-5-carboxylic Acid Cyclopropylamide]
6.00 to 7.00 | 5.00 to 6.00 | CCC(C)n1ncc2nc(N3CCN(C(C)=O)CC3)nc(N[C@@H](C)c3cnc4ccccc4c3)c21 (stereo partly shown) [Example 18]
7.00 to 9.00 | 5.00 to 6.00 | CCC(C)n1ncc2nc(-c3cn[nH]c3)nc(N[C@@H](c3cnc4ccccc4c3)C3CC3)c21 (stereo partly shown) [Example 119]
6.00 to 7.00 | 5.00 to 6.00 | CC(=O)N1CCN(c2nc(NC(C)(C)Cc3ccc(Cl)cc3)c3nn(C(C)C)c(C)c3n2)CC1 [Example 101]
7.00 to 9.00 | 5.00 to 6.00 | CCC(C)n1ncc2nc(-c3cnn(CCO)c3)nc(N[C@H](C)c3cnc4ccccc4c3)c21 (stereo partly drawn) [Example 113, 2-{4-[1-sec-Butyl-7-((R)-1-quinolin-3-yl-ethylamino)-1H-pyrazolo[4,3-d]pyrimidin-5-yl]-pyrazol-1-yl}-ethanol]
6.00 to 7.00 | 5.00 to 6.00 | CCC(C)n1ncc2nc(-n3cnnn3)nc(N[C@@H](c3cnc4ccccc4c3)C3CC3)c21 (single isomer, unassigned) [Example 79]
6.00 to 7.00 | 5.00 to 6.00 | CCC(C)n1cc2nc(N3CCN(C(C)=O)CC3)nc(NC(C)(C)Cc3ccc(Cl)cc3)c2n1 (stereo not shown) [Example 6]

pIC50 (hP2X3) | pIC50 (hP2X2/3) | SMILES
7.00 to 9.00 | 6.00 to 7.00 | CCC(CC)n1ncc2nc(N3CCN(C(C)=O)CC3)nc(N[C@H](CC)c3cnc4ccccc4c3)c21 [Example 35]
7.00 to 9.00 | < 5.00 | CC(=O)N1CCN(c2nc(N[C@H](C)c3cnc4ccccc4c3)c3c(n2)c(C#N)nn3C(C)C)CC1 [Example 104]
7.00 to 9.00 | 6.00 to 7.00 | CC[C@H](C)n1ncc2nc(N3CCN(C(N)=O)CC3)nc(NC(C)c3cnc4cc(F)c(F)cc4c3)c21 (stereo partly shown) [Example 68]
7.00 to 9.00 | 5.00 to 6.00 | CC[C@H](C)n1ncc2nc(N3CCN(C(N)=O)CC3)nc(NC(c3ccc4c(cnn4CC)c3)C3CC3)c21 (stereo partly shown) [Example 80]
7.00 to 9.00 | 5.00 to 6.00 | CCC(C)n1ncc2nc(N3CCN(C(C)=O)CC3)nc(NCC3(c4ccc(Cl)cc4)CCC3)c21 (stereo not shown) [Example 31]
7.00 to 9.00 | 7.00 to 9.00 | CC(=O)N1CCN(c2nc(N[C@H](C)c3cnc4ccccc4c3)c3c(cnn3C(C3CC3)C3CC3)n2)CC1 [Example 34]
7.00 to 9.00 | 6.00 to 7.00 | CCC(C)n1ncc2nc(N3CCN(C(N)=O)CC3)nc(N[C@H](C)c3cnc4ccccc4c3)c21 (stereo partly shown) [Example 85]
7.00 to 9.00 | 7.00 to 9.00 | CC(C1CC1)n1ncc2nc(N3CCN(C(N)=O)CC3)nc(N[C@@H](c3cnc4ccccc4c3)C3CC3)c21 (stereo partly shown) [Example 86]
7.00 to 9.00 | 6.00 to 7.00 | CC[C@H](C)n1ncc2nc(N3CCN(C(C)=O)CC3)nc(NC(CO)c3cnc4ccccc4c3)c21 (stereo partly shown) [Example 81]
7.00 to 9.00 | 5.00 to 6.00 | CC(=O)N1CCN(c2nc(N[C@H](C)c3cnc4ccccc4c3)c3c(cnn3CC3CCC3)n2)CC1 [Example 32]
7.00 to 9.00 | 7.00 to 9.00 | CCC(C)n1ncc2nc(-c3cnn(CCF)c3)nc(N[C@@H](c3cnc4ccccc4c3)C3CC3)c21 (stereo partly shown) [Example 116]
7.00 to 9.00 | 5.00 to 6.00 | CCC(C)n1ncc2nc(N3CCN(C(C)=O)CC3)nc(NC(c3ccc(-c4ccccc4)nc3)C3CC3)c21 (stereo not shown) [Example 58]
7.00 to 9.00 | 6.00 to 7.00 | CCC(CC)n1ncc2nc(N3CCN(C(C)=O)CC3)nc(N[C@H](C)c3cnc4ccc(F)cc4c3)c21 [Example 61]
7.00 to 9.00 | 5.00 to 6.00 | CCC(C)n1ncc2nc(C3CCN(C(N)=O)CC3)nc(N[C@@H](c3cnc4ccccc4c3)C3CC3)c21 (stereo partly shown) [Example 118]
7.00 to 9.00 | 5.00 to 6.00 | CC(=O)N1CCN(c2nc(NC(C)c3cnc4ccccc4c3)c3nn(C(C)C)c(Br)c3n2)CC1 (stereo not shown) [Example 94]
7.00 to 9.00 | 6.00 to 7.00 | CCC(CC)n1ncc2nc(N3CCN(C(C)=O)CC3)nc(NC(C)c3ccc4oc(C)cc4c3)c21 (stereo not shown) [Example 46]
